Test results as given in ChEMBL document CHEMBL3885861, “Open TG-GATES”.

Organism: Rattus norvegicus
Assay: Open TG-GATES - Regimen: Single
Type: toxicity, organism-based, Sprague-Dawley
Parameters: regimen Single, gender Male, age 6 weeks
Settings: in vivo, iv, route intravenous injection; for MCV / Mono / Neu / PT / Plat / RBC / Ret / WBC / APTT / Bas / Eos / Fbg / Ht / Lym / Hb / MCH / MCHC: tissue Blood; for KIDNEY_L / KIDNEY_R / KIDNEY_TOTAL: tissue Kidney; for LIVER: tissue Liver
[1] = 30 mg/kg, 3 h, dose level Middle
[2] = 30 mg/kg, 3 h, tissue Plasma, dose level Middle
[3] = 30 mg/kg, 6 h, dose level Middle
[4] = 30 mg/kg, 6 h, tissue Plasma, dose level Middle
[5] = 30 mg/kg, 9 h, dose level Middle
[6] = 30 mg/kg, 9 h, tissue Plasma, dose level Middle
[7] = 30 mg/kg, 24 h, dose level Middle
[8] = 30 mg/kg, 24 h, tissue Plasma, dose level Middle
[9] = 100 mg/kg, 3 h, dose level High
[10] = 100 mg/kg, 3 h, tissue Plasma, dose level High
[11] = 100 mg/kg, 6 h, dose level High
[12] = 100 mg/kg, 6 h, tissue Plasma, dose level High
[13] = 100 mg/kg, 9 h, dose level High
[14] = 100 mg/kg, 9 h, tissue Plasma, dose level High
[15] = 100 mg/kg, 24 h, dose level High
[16] = 100 mg/kg, 24 h, tissue Plasma, dose level High

GENTAMICIN
MCV [1]: 62.9 fL | Mono [1]: 3.2% | Neu [1]: 16.4% | PT [1]: 16.2 s | Plat [1]: 131.2 x10_4/uL | RBC [1]: 626.2 x10_4/ul | Ret [1]: 6.5% | WBC [1]: 81.8 x10_2/uL | KIDNEY_L [1]: 0.9 g | KIDNEY_R [1]: 0.9 g | KIDNEY_TOTAL [1]: 1.8 g | LIVER [1]: 9.6 g | ALT [2]: 42.6 IU/L | AST [2]: 82.2 IU/L | CRE [2]: 0.1 mg/dL | DBIL [2]: 0.004 mg/dL | GLC [2]: 182 mg/dL | IP [2]: 8.1 mg/dL | K [2]: 4.3 meq/L | LDH [2]: 251.4 IU/L | PL [2]: 133.2 mg/dL | RALB [2]: 2.9 g/dL | TBIL [2]: 0.02 mg/dL | TC [2]: 62.4 mg/dL | TG [2]: 99.2 mg/dL | TP [2]: 5.3 g/dL | gamma-GTP [2]: 1.4 IU/L | TERMINAL_BW [3]: 210.3 g | APTT [3]: 23.2 s | Bas [3]: 0% | Eos [3]: 0.4% | Fbg [3]: 291.6 mg/dL | Ht [3]: 39.5% | Lym [3]: 77.6% | MCV [3]: 62 fL | Mono [3]: 3.4% | PT [3]: 16 s | Plat [3]: 119.1 x10_4/uL | RBC [3]: 636.4 x10_4/ul | Ret [3]: 6.3% | WBC [3]: 117 x10_2/uL | KIDNEY_L [3]: 0.9 g | KIDNEY_R [3]: 1 g | KIDNEY_TOTAL [3]: 1.9 g | LIVER [3]: 8.7 g | ALP [4]: 1316 IU/L | ALT [4]: 35 IU/L | AST [4]: 68.8 IU/L | BUN [4]: 9.4 mg/dL | CRE [4]: 0.1 mg/dL | DBIL [4]: 0.002 mg/dL | GLC [4]: 177.2 mg/dL | IP [4]: 9 mg/dL | K [4]: 4.3 meq/L | PL [4]: 139.4 mg/dL | RALB [4]: 3 g/dL | TBIL [4]: 0.024 mg/dL | TC [4]: 74.6 mg/dL | TG [4]: 84.4 mg/dL | TP [4]: 5.3 g/dL | gamma-GTP [4]: 1 IU/L | TERMINAL_BW [5]: 213 g | APTT [5]: 24 s | Bas [5]: 0% | Eos [5]: 1% | Fbg [5]: 294.6 mg/dL | Hb [5]: 13 g/dL | Ht [5]: 38.6% | Lym [5]: 77.4% | MCH [5]: 21 pg | MCHC [5]: 33.6% | Mono [5]: 3% | Neu [5]: 17.2% | PT [5]: 16.2 s | Plat [5]: 122.8 x10_4/uL | RBC [5]: 617.4 x10_4/ul | Ret [5]: 5.8% | WBC [5]: 109.5 x10_2/uL | KIDNEY_L [5]: 1 g | KIDNEY_R [5]: 1 g | KIDNEY_TOTAL [5]: 2 g | LIVER [5]: 8.5 g | ALP [6]: 1266.6 IU/L | ALT [6]: 34.4 IU/L | AST [6]: 72 IU/L | BUN [6]: 10.8 mg/dL | CRE [6]: 0.1 mg/dL | DBIL [6]: 0.002 mg/dL | GLC [6]: 175.2 mg/dL | IP [6]: 9.5 mg/dL | K [6]: 4.4 meq/L | LDH [6]: 134.6 IU/L | Na [6]: 144.2 meq/L | PL [6]: 134.2 mg/dL | RALB [6]: 2.9 g/dL | TBIL [6]: 0.022 mg/dL | TC [6]: 73.8 mg/dL | TG [6]: 49.4 mg/dL | TP [6]: 5.2 g/dL | gamma-GTP [6]: 1.6 IU/L | TERMINAL_BW [7]: 228.1 g | APTT [7]: 22.7 s | Bas [7]: 0% | Eos [7]: 0.8% | Fbg [7]: 295.4 mg/dL | Hb [7]: 12.9 g/dL | Ht [7]: 38% | Lym [7]: 76.6% | MCHC [7]: 34% | MCV [7]: 61.3 fL | Mono [7]: 4% | Neu [7]: 18% | PT [7]: 16.4 s | Plat [7]: 115.7 x10_4/uL | RBC [7]: 621.4 x10_4/ul | Ret [7]: 6% | WBC [7]: 112.3 x10_2/uL | KIDNEY_L [7]: 1 g | KIDNEY_R [7]: 1 g | KIDNEY_TOTAL [7]: 2 g | LIVER [7]: 10.2 g | ALP [8]: 1367.4 IU/L | ALT [8]: 41.4 IU/L | BUN [8]: 15.6 mg/dL | CRE [8]: 0.2 mg/dL | DBIL [8]: 0.004 mg/dL | IP [8]: 7.2 mg/dL | K [8]: 4.1 meq/L | LDH [8]: 137.2 IU/L | PL [8]: 153.2 mg/dL | RALB [8]: 3 g/dL | TBIL [8]: 0.02 mg/dL | TC [8]: 81.4 mg/dL | TG [8]: 101.6 mg/dL | TP [8]: 5.4 g/dL | gamma-GTP [8]: 1 IU/L | TERMINAL_BW [9]: 221.2 g | APTT [9]: 22.7 s | Bas [9]: 0% | Eos [9]: 1% | Fbg [9]: 284 mg/dL | Ht [9]: 37.3% | Lym [9]: 72% | MCV [9]: 63.9 fL | Mono [9]: 3% | Neu [9]: 23.3% | Plat [9]: 123.5 x10_4/uL | RBC [9]: 584 x10_4/ul | Ret [9]: 6.4% | WBC [9]: 86 x10_2/uL | KIDNEY_L [9]: 1 g | KIDNEY_R [9]: 1 g | KIDNEY_TOTAL [9]: 1.9 g | LIVER [9]: 9.9 g | ALP [10]: 1392.3 IU/L | ALT [10]: 41.3 IU/L | AST [10]: 82.7 IU/L | BUN [10]: 13 mg/dL | CRE [10]: 0.1 mg/dL | Ca [10]: 11 mg/dL | DBIL [10]: 0.0067 mg/dL | GLC [10]: 177.3 mg/dL | IP [10]: 7.9 mg/dL | K [10]: 4.1 meq/L | LDH [10]: 155.3 IU/L | PL [10]: 129.7 mg/dL | RALB [10]: 2.8 g/dL | TBIL [10]: 0.03 mg/dL | TC [10]: 69.3 mg/dL | TG [10]: 71.7 mg/dL | TP [10]: 5.2 g/dL | gamma-GTP [10]: 1 IU/L | TERMINAL_BW [11]: 211.7 g | APTT [11]: 24.2 s | Bas [11]: 0% | Eos [11]: 0.8% | Fbg [11]: 292 mg/dL | Ht [11]: 39.4% | Lym [11]: 74.2% | MCH [11]: 21 pg | MCHC [11]: 33.9% | MCV [11]: 61.9 fL | Mono [11]: 3.6% | Neu [11]: 20.6% | PT [11]: 15.9 s | Plat [11]: 126.2 x10_4/uL | RBC [11]: 637 x10_4/ul | Ret [11]: 6.6% | WBC [11]: 92.6 x10_2/uL | KIDNEY_L [11]: 0.9 g | KIDNEY_R [11]: 0.9 g | KIDNEY_TOTAL [11]: 1.8 g | LIVER [11]: 8.4 g | ALP [12]: 1407.2 IU/L | ALT [12]: 34.8 IU/L | AST [12]: 67.6 IU/L | CRE [12]: 0.1 mg/dL | DBIL [12]: 0.004 mg/dL | GLC [12]: 176.2 mg/dL | IP [12]: 9 mg/dL | K [12]: 4.7 meq/L | LDH [12]: 165.8 IU/L | PL [12]: 144.4 mg/dL | RALB [12]: 2.9 g/dL | TBIL [12]: 0.02 mg/dL | TG [12]: 98.6 mg/dL | TP [12]: 5.2 g/dL | gamma-GTP [12]: 1.2 IU/L | TERMINAL_BW [13]: 211.4 g | APTT [13]: 22.4 s | Bas [13]: 0% | Eos [13]: 0.8% | Fbg [13]: 296.4 mg/dL | Hb [13]: 12.9 g/dL | Ht [13]: 38.7% | Lym [13]: 80.6% | MCH [13]: 20.6 pg | MCHC [13]: 33.3% | MCV [13]: 61.9 fL | Mono [13]: 3.2% | Plat [13]: 120.1 x10_4/uL | RBC [13]: 625.2 x10_4/ul | Ret [13]: 6.4% | WBC [13]: 76.1 x10_2/uL | KIDNEY_L [13]: 0.9 g | KIDNEY_R [13]: 1 g | KIDNEY_TOTAL [13]: 1.9 g | LIVER [13]: 8.6 g | ALP [14]: 1221 IU/L | ALT [14]: 30.8 IU/L | AST [14]: 65.6 IU/L | BUN [14]: 12.8 mg/dL | CRE [14]: 0.1 mg/dL | Ca [14]: 11 mg/dL | DBIL [14]: 0.002 mg/dL | GLC [14]: 174.6 mg/dL | IP [14]: 9.4 mg/dL | K [14]: 4.7 meq/L | LDH [14]: 145.2 IU/L | PL [14]: 144 mg/dL | RALB [14]: 2.9 g/dL | TBIL [14]: 0.016 mg/dL | TC [14]: 77 mg/dL | TG [14]: 70.4 mg/dL | TP [14]: 5.3 g/dL | gamma-GTP [14]: 1 IU/L | TERMINAL_BW [15]: 225.5 g | APTT [15]: 23.2 s | Bas [15]: 0% | Eos [15]: 1% | Fbg [15]: 301.2 mg/dL | Hb [15]: 13.6 g/dL | Ht [15]: 39.5% | Lym [15]: 77.4% | MCHC [15]: 34.4% | MCV [15]: 60.8 fL | Mono [15]: 4.8% | PT [15]: 16.4 s | Plat [15]: 122.8 x10_4/uL | RBC [15]: 649.4 x10_4/ul | Ret [15]: 5.4% | WBC [15]: 96.8 x10_2/uL | KIDNEY_L [15]: 1 g | KIDNEY_R [15]: 1 g | KIDNEY_TOTAL [15]: 2 g | LIVER [15]: 9.6 g | ALP [16]: 1293.2 IU/L | ALT [16]: 37.8 IU/L | AST [16]: 66.4 IU/L | CRE [16]: 0.1 mg/dL | DBIL [16]: 0.002 mg/dL | GLC [16]: 186.4 mg/dL | IP [16]: 7.7 mg/dL | K [16]: 4.2 meq/L | LDH [16]: 159.2 IU/L | PL [16]: 162.4 mg/dL | RALB [16]: 3.1 g/dL | TBIL [16]: 0.018 mg/dL | TC [16]: 82.4 mg/dL | TG [16]: 110.2 mg/dL | TP [16]: 5.5 g/dL | gamma-GTP [16]: 1.2 IU/L
